Patent publication US20150141367A1, “MODULATION OF GROWTH OF BIFIDOBACTERIA USING A COMBINATION OF OLIGOSACCHARIDES FOUND IN HUMAN MILK” (NESTEC S.A., priority 2011, published 2015)

Experiments:
[1] = tested on: Bifidobacterium Breve ATCC 15700; test: Growth of bifidobacteria in RCM without glucose, optical density at 595 nm over 30 hours; type: cell-based
Procedure: (§1) Reinforced Clostridia Medium (RCM) was used for cultivating the bifidobacteria. RCM without glucose was used as a control medium. RCM is a well-known medium for cultivating and enumerating anaerobes, which was first formulated by Hirsch and Grinstead, J. Dairy Res., 21:101 (1954). The test ingredients were 2′-fucosyllactose, 6′-sialyllactose and 3′-sialyllactose dissolved in the control medium at the following concentrations: 1 mg/ml 2′-fucosyllactose; 1 mg/ml 6′-sialyllactose; and, 2 mg/ml 3′-sialyllactose. The bifidobacteria were separately grown overnight anaerobically in RCM, and were then measured and diluted to an optical density of 0.1 as measured by absorbance spectroscopy at 595 nm, and were then further diluted ten-fold to make a working stock. For each test, 50 μl of working stock was added to each well of a 96 well plate containing either 200 μl of control medium (48 wells) or 200 μl test ingredient solution (48 wells). The plate was grown anaerobically for 30 hours and optical density was read at abs 595 nm every 15 minutes. The values for like wells were averaged and plotted over time (FIGS. 1, 3, and 5-7), and the area under the curve (AUC) was calculated over the 30-hour period (FIGS. 2 and 4).

[2] = tested on: Bifidobacterium Infantis ATCC 15697; test: as above; type: cell-based; settings: for growth in wells containing the test ingredient vs control medium: abs 595 nm; for effect on the growth of Bifidobacterium infantis (summary statement): summary in description
Procedure: as §1

Compound	growth in wells containing the test ingredient vs control medium ([1]; 2 mg/ml 3′-sialyllactose, after grown for 6 hours, abs 595 nm, FIG. 6)	effect on the growth of Bifidobacterium breve (summary statement) ([1]; summary in description)	growth in wells containing the test ingredient vs control medium ([2]; 2 mg/ml 3′-sialyllactose, after grown for 8 hours, FIG. 7)	effect on the growth of Bifidobacterium infantis (summary statement) [2]	growth in wells containing the test ingredient vs control medium ([2]; 1 mg/ml 6′-sialyllactose, after grown for 12 hours, FIG. 5)
CC(=O)N[C@H]1[C@H]([C@H](O)[C@H](O)CO)O[C@@](O[C@H]2[C@@H](O)[C@@H](CO)O[C@@H](O[C@H]3[C@H](O)[C@@H](O)C(O)O[C@@H]3CO)[C@@H]2O)(C(=O)O)C[C@@H]1O (stereo partly drawn) [3′-sialyllactose]	significantly greater	stimulates the growth	significantly greater	stimulates the growth	–
CC(=O)N[C@H]1[C@H]([C@H](O)[C@H](O)CO)O[C@@](OC[C@H]2O[C@@H](O[C@H]3[C@H](O)[C@@H](O)[C@H](O)O[C@@H]3CO)[C@H](O)[C@@H](O)[C@H]2O)(C(=O)O)C[C@@H]1O [6′-sialyllactose]	–	–	–	stimulates the growth	significantly greater
